Drawing on PubChem BioAssay (NCI), this text covers GI50 and TGI for 45 compounds.

The structures appear in SMILES notation.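 Values below derive from 48-hour exposures of cells grown in 96-well plates, with endpoints linearly interpolated between the two concentrations bracketing the appropriate inhibition level. At the GI50, growth is halved. Definition used: TGI = concentration required for complete inhibition of growth.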

For this test, the system named is MDA-MB-468 breast. Briefly: inhibition of tumour cell growth, NCI panel, 48 h.

On to `CC(=O)Nc1ccc(/C=C/C(=O)c2ccccc2)cc1`, for which the GI50 is 11.7 µM and the TGI amounted to 26 µM.

With `Nc1ccccc1-c1ccc([N+](=O)[O-])cc1`, the GI50 was 13.4 µM and the TGI was above 100 µM.

For `CC/C(=C(/c1ccc(OCCN(C)C)cc1)c1ccc(OC(=O)CCC(=O)c2c(C)[nH]c(/C=C3\N=C(c4ccc[nH]4)C=C3OC)c2C)cc1)c1ccccc1`, the GI50 was 2.9 µM and the TGI stood at 14 µM.

Turning to `N#C/C(=N\Nc1ccc(Cl)cc1)C(=O)Nc1cc(-c2ccccc2)nn1-c1ccccc1`, the GI50 was 1.84 µM and the TGI stood at 5.93 µM.

Regarding `COc1cc(C(=O)N2N=C(c3ccc(S(C)(=O)=O)cc3)CC2c2ccco2)cc(OC)c1OC` (stereo not given), the GI50 was 2.49 µM and the TGI is above 26 µM.

`Cc1ccc2c(c1)c1nc3cc(C)c(C)cc3nc1n2CCN(C)C`: the GI50 is 1.39 µM and the TGI was found to be 3.54 µM.

On to `CCN1/C(=C/C=C/c2n(-c3ccccc3)c3ccc(-c4nc5ccccc5s4)cc3[n+]2CC)N(c2ccccc2)c2ccc(-c3nc4ccccc4s3)cc21`, for which the GI50 was 0.283 µM and the TGI was above 50 µM.

On to `O=c1c2ccccc2c(Br)c(Br)c2ccccc12`, for which the GI50 was 2.74 µM and the TGI worked out at 9.55 µM.

As to `Clc1cc2c(cc1Cl)Oc1cc(Cl)c(Cl)cc1O2`, the GI50 was above 0.625 µM and the TGI is above 0.625 µM.

Consider `COc1cc2cc(C(=O)CCC(=O)O)sc2cc1OC`, for which the GI50 is above 100 µM and the TGI is above 100 µM.

On to `CN(c1cc2ncc(=O)[nH]c2cc1NC(N)=NCc1ccc(Cl)cc1)C1CCCCC1`, for which the GI50 was 1.23 µM and the TGI was 4.42 µM.

Take `Cn1ccnc1C(=O)/C=C/c1ccc(C(=O)Nc2ccc(S(F)(F)(F)(F)F)cc2)cc1`: the GI50 was 0.423 µM and the TGI was found to be 13.8 µM.

In the case of `Oc1ccccc1/C=N/Nc1nc(N/N=C/c2ccccc2O)nc(N2CCOCC2)n1`, the GI50 was 4.11 µM and the TGI came out at 35.9 µM.

Regarding `CCN(CC)c1ccc(/C=C2/C[N+](C)(C)C/C(=C/c3ccc(N(CC)CC)cc3)C2=O)cc1`, the GI50 was 1.32 µM and the TGI was 3.57 µM.

With `COc1ccc(C2CC(c3cccc(Nc4ccncc4)c3)=NN2c2ccc(Cl)cc2)cc1` (stereo not given), the GI50 was 1.45 µM and the TGI was 2.95 µM.

Regarding `Cn1cc(C2=C(c3cn(CCO)c4ccccc34)C(=O)NC2=O)c2ccccc21`, the GI50 is 2.52 µM and the TGI was found to be 10.8 µM.

With `CC(=O)N1N=C(c2ccc(Nc3nc(Nc4ccc(Cl)cc4)nc(Nc4ccc(Cl)cc4)n3)cc2)CC1c1ccc([N+](=O)[O-])cc1` (stereo not given), the GI50 was 3.08 µM and the TGI was above 100 µM.

Take `N#Cc1ncc(-c2ccc(C(F)(F)F)cc2)c(NCc2cc(C(F)(F)F)cc(C(F)(F)F)c2)n1`: the GI50 was 2.56 µM and the TGI was determined as 7.38 µM.

For `c1ccc(C2CC(c3cccc(Nc4ccncc4)c3)=NN2c2ccccc2)cc1` (stereo not given), the GI50 is 1.49 µM and the TGI amounted to 3.02 µM.

With `O=c1ccc(N=Nc2ccc([N+](=O)[O-])cc2)ccc1O`, the GI50 was 3.8 µM and the TGI stood at 81.2 µM.

Take `CCOc1ccc(-c2cnnn2-c2nonc2-n2cccc2)cc1`: the GI50 was 0.12 µM and the TGI came to 0.495 µM.

On to `C/C=C/C/C=C/CCC(=O)[C@H]1O[C@H]1C(N)=O`, for which the GI50 was 11.7 µM and the TGI was determined as 25.9 µM.

As to `CCCc1cc(O)c2c3c(c(=O)oc2c1)CN(C)CC3`, the GI50 is 24.2 µM and the TGI was 85.2 µM.

With `Cc1ccc(NC(=O)Cc2ccc(/C=C/C(=O)c3ncc[nH]3)cc2)cc1`, the GI50 was 3.3 µM and the TGI was 23.4 µM.

Regarding `Clc1ccc(/C=C/c2cc(N3CCOCC3)c3cc(Cl)c(Cl)cc3n2)cc1`, the GI50 was above 100 µM and the TGI was above 100 µM.

For `CCCCCCc1cc2cc(-c3nc4ccccc4[nH]3)c(=Nc3ccccc3C)oc2cc1O`, the GI50 is 1.82 µM and the TGI was determined as 3.74 µM.

For the compound `N#Cc1cccc(OCc2nc(N)nc(N)c2-c2ccc(Cl)c(Cl)c2)c1`, the GI50 is 3.08 µM and the TGI was above 100 µM.

As to `O=S(=O)(Cc1ccc(Cl)cc1Cl)c1ccc(Cl)cc1`, the GI50 is 0.265 µM and the TGI is 2.19 µM.

As to `O=C(CSc1nc2sc3c(c2c(=O)n1-c1ccc(Cl)cc1)CCCC3)NNC(=O)Nc1ccc(Cl)c(C(F)(F)F)c1`, the GI50 is 1.55 µM and the TGI is 3.66 µM.

Consider `CN(Cc1ccc(Cl)cc1)c1ccc(CO)c(Cl)c1`, for which the GI50 is 0.0657 µM and the TGI was found to be 0.219 µM.

In the case of `CCOc1ccccc1NC(=O)c1cc2ccccc2cc1O`, the GI50 was 2.38 µM and the TGI was determined as 7.18 µM.

As for `CC(C)[C@H]1CC[C@H]2[C@@H](CC[C@H]3[C@](C)(CN)CCC[C@]23C)C1`, the GI50 is 8.83 µM and the TGI came out at 23.5 µM.

With `CC(C)Nc1ccc(Nc2ccccc2)cc1`, the GI50 is 4.45 µM and the TGI was 19.7 µM.

On to `Cc1cc2cc3cc(C)c(N(C)C)cc3[n+](C)c2cc1N(C)C`, for which the GI50 was 0.95 µM and the TGI worked out at 13.5 µM.

On to `O=C1C2C(C(=O)[N]1[Hg][c]1cccs1)C1(Cl)C(Cl)=C(Cl)C2(Cl)C1(Cl)Cl` (stereo not given), for which the GI50 is 1.25 µM and the TGI worked out at 2.7 µM.

For the compound `CCCCCc1nc2c(c3c1CCCC3)CCCC2`, the GI50 is 4.13 µM and the TGI turned out to be 18.1 µM.

As for `N/C(=C\C(=O)n1nc(-c2ccccc2)cc1N)c1ccccc1`, the GI50 is 5.54 µM and the TGI turned out to be 56.3 µM.

For `COc1cccc(C2C3=C(COC3=O)N(CCO)c3cc(OC)ccc32)c1` (stereo not given), the GI50 was 0.0365 µM and the TGI was 1.26 µM.

Regarding `COc1cc(-c2nc3sccn3c2-c2ccnc(NCCNS(=O)(=O)c3ccc(Cl)cc3)n2)ccc1F`, the GI50 was 2.48 µM and the TGI is above 100 µM.

On to `CC(C)c1c(C(=O)Nc2ccccc2)c(-c2ccccc2)c(-c2ccc(F)cc2)n1CC[C@@H]1CC=CC(=O)O1`, for which the GI50 was 1.83 µM and the TGI amounted to 3.82 µM.

Take `O=C(Nc1ccc(F)cc1)Nc1ccccc1CNc1nc(Nc2ccc(OCCN3CCCC3)cc2)ncc1Cl`: the GI50 is 1.12 µM and the TGI worked out at 2.89 µM.

For the compound `Oc1ccc(CN2CCC(N3CCOCC3)CC2)c2cccnc12`, the GI50 is 22.6 µM and the TGI stood at 60.6 µM.

Consider `Cn1cc(C2=C(c3cccc(N)c3)C(=O)NC2=O)c2ccccc21`, for which the GI50 is above 18.2 µM and the TGI is above 25 µM.

In the case of `O=c1c2c3c(sc2n2c(-c4cc(-c5ccccc5)no4)nnc2n1Cc1ccccc1)CCCC3`, the GI50 is 14.6 µM and the TGI stood at 43.8 µM.

Turning to `Cc1cc(NCCCNc2ccnc3cc(Cl)ccc23)nc(N2CCN(C)CC2)n1`, the GI50 is 1.76 µM and the TGI amounted to 5.97 µM.
